ChEMBL document CHEMBL1150191, “Isolation of Eupalmerin, a Minor Cembranoid Diterpene from the Caribbean Gorgonian Eunicea mammosa” (J Nat Prod, 1991)
≈ marks a conversion by molar mass, not a printed value.

Assay: Cytotoxicity against CHOK1 cells
Type: cell-based, Cricetulus griseus
Details: chinese hamster, CHO-K1 cells; read-out: ED50 (the source's name)

C=C1C(=O)O[C@H]2[C@H](O)[C@@H](C)CCC/C(C)=C/CC[C@@]3(C)O[C@H]3C[C@@H]12 [EUPALMERIN]
CC50: 5.46 µg/mL (≈ 16.3 µM)
